Laboratory results taken from US7893074B2, “2, 4-pyrimidinediamines useful in the treatment of neoplastic diseases, inflammatory and immune system disorders” (Novartis AG, priority 2003, dated 2011).
pIC50: −log10 of the molar value. Several values for one entry are separate records, joined by “and”; a condition that tells them apart may be missing. Identical values can stand only once. Like-named read-outs stand apart in the source and are kept apart here.

Tests used:
[1] = tested on: Mouse mammary carcinoma 4T1 cells; experiment: Anchorage-independent tumor cell growth assay; type: cell-based
Method: Cells are cultured for 2 h and inhibitors are added at various concentrations in a final concentration of 0.1% DMSO. After 48 h, cell growth is assayed with the cell counting kit-8 (Wako Pure Chemical), which uses a water soluble tetrazolium salt WST8. Twenty μL of the reagent is added into each well and cells are further cultured for 2 h. The optical density is measured at 450 nm.

[2] = target: FAK (Mus musculus, UniProt P34152); experiment: Phos IC50 (phosphorylation); type: cell-based
[3] = target: Focal Adhesion Kinase (FAK) (Homo sapiens, UniProt Q05397); experiment: FAK assay system (Focal Adhesion Kinase inhibition); type: biochemical
Chain of Focal Adhesion Kinase (FAK) (Q05397 384-706): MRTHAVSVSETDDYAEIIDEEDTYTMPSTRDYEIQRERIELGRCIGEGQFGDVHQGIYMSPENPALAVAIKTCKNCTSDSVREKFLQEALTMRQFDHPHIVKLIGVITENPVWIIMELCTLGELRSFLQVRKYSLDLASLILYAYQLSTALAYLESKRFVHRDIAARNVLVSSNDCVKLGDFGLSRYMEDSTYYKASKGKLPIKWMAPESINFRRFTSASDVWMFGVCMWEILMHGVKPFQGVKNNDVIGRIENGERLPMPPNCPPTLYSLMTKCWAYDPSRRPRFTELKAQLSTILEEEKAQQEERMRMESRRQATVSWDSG

Chain of FAK (P34152 2-1052): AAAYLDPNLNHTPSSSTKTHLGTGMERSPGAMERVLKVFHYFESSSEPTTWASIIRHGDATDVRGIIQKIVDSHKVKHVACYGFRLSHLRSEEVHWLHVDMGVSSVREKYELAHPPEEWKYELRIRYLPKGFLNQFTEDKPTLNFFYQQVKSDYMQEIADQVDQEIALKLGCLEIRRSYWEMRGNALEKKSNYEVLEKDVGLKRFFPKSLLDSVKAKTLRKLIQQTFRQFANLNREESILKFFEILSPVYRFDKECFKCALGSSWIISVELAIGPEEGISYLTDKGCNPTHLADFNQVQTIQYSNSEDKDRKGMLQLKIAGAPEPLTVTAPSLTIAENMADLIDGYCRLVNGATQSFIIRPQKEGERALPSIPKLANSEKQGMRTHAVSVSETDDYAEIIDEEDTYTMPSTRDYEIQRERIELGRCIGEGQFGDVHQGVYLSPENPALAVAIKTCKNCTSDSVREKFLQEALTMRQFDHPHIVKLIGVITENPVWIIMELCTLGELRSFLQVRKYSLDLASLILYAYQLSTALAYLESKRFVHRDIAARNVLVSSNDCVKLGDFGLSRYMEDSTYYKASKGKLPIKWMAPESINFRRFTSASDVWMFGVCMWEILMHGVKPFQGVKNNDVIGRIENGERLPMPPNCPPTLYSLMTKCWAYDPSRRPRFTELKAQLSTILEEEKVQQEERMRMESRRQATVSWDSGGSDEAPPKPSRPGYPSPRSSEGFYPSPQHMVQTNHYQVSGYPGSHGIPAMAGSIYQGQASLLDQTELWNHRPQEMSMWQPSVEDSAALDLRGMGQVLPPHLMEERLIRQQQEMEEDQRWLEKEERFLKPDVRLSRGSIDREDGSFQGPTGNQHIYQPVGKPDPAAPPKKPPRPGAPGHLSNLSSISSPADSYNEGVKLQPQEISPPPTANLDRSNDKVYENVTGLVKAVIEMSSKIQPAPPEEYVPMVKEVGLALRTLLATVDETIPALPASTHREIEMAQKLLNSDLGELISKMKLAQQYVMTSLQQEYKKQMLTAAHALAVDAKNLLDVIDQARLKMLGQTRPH

Structure (SMILES) | pIC50 ([1]; Mus musculus, 4T1) | pIC50 [2] | pIC50 ([3]; read-out: FAK IC50) | pIC50 ([3]; FAK IC50) | pIC50 ([3]; FAK inhibition IC50, FAK assay system) | pIC50 [1]
NS(=O)(=O)c1ccccc1Nc1nc(Nc2cccc3c2OC(F)(F)O3)ncc1Br [Compound 6, 2-[5-Bromo-2-(2,3-[difluoromethylenedioxy]phenylamino)-pyrimidin-4-ylamino]-benzenesulfonamide] | 5.30 | 6.46 | 6.96 |  |  | 
CNS(=O)(=O)c1ccccc1Nc1nc(Nc2cc(OC)ccc2OC)ncc1[N+](=O)[O-] [Example 1, 2-[2-(2,5-Dimethoxy-phenylamino)-5-nitro-pyrimidin-4-ylamino]-N-methyl-benzenesulfonamide] | < 5.00 | 6.15 | 6.85 |  |  | 
CNS(=O)(=O)c1ccccc1Nc1nc(Nc2ccc(OC)cc2OC)ncc1Br [Example 2, 2-[5-Bromo-2-(2,4-dimethoxy-phenylamino)-pyrimidin-4-ylamino]-N-methyl-benzenesulfonamide] |  |  | 7.89 |  |  | 
CNS(=O)(=O)c1ccccc1Nc1nc(Nc2cccc3c2OC(F)(F)O3)ncc1Br [Example 3-1] | < 5.00 | 6.47 | 7.36 |  |  | 
CNS(=O)(=O)c1ccccc1Nc1nc(Nc2cc(OC)ccc2C)ncc1Br [Example 3-3] | 6.10 | 6.85 | 8.04 |  |  | 
CNS(=O)(=O)c1ccccc1Nc1nc(Nc2ccc(C)cc2F)ncc1Br [Example 3-4] | 5.70 | 6.28 | 7.49 |  |  | 
CNS(=O)(=O)c1ccccc1Nc1nc(Nc2ccccc2OC)ncc1Br [Example 3-6] | 5.70 | 6.96 | 7.89 |  |  | 
CNS(=O)(=O)c1ccccc1Nc1nc(Nc2ccccc2C)ncc1Br [Example 3-7] | 5.70 | 6.35 | 7.80 |  |  | 
CNc1ccccc1Nc1ncc(Br)c(Nc2ccccc2S(=O)(=O)NC)n1 [Example 3-8] | 5.22 | 6.52 | 7.13 |  |  | 
CNS(=O)(=O)c1ccccc1Nc1nc(Nc2cc(-c3ccccc3)ccc2OC)ncc1Br [Example 3-9] | 6.15 | 6.30 | 7.32 |  |  | 
CNS(=O)(=O)c1ccccc1Nc1nc(Nc2cccc3c2CCC3)ncc1Br [Example 3-12] | 6.00 |  |  | 8.27 | 8.30 to 9.00 | 
CNS(=O)(=O)c1ccccc1Nc1nc(Nc2ccc(F)cc2F)ncc1Br [Example 3-36] | 5.55 |  |  | 7.37 |  | 
CNS(=O)(=O)c1ccccc1Nc1nc(Nc2cc(C(=O)N3CCN(C)CC3)ccc2OC)ncc1Br [Example 3-49] | 6.41 |  | 7.41 |  |  | 
CNS(=O)(=O)c1ccccc1Nc1nc(Nc2cccc(N(C)C)c2C)ncc1Br [Example 3-53] | 6.68 |  |  | 8.22 |  | 
CNS(=O)(=O)c1ccccc1Nc1nc(Nc2cc(-c3ccc(OC)cc3)ccc2OC)ncc1Br [Example 3-56] | 6.82 |  |  | 7.55 |  | 
CCOc1ccc(OC)cc1Nc1ncc(Br)c(Nc2ccccc2S(=O)(=O)NC)n1 [Example 3-61] | < 5.00 |  | 7.92 |  |  | 
CNS(=O)(=O)c1ccccc1Nc1nc(Nc2ccc(OC3CCN(C)C3)cc2OC)ncc1Br (stereo not shown) [Example 3-82] |  |  |  |  |  | 7.15
CNC(=O)c1ccccc1Nc1nc(Nc2ccc(N3CCC[C@@H](C(N)=O)C3)cc2OC)ncc1Cl [Example 7-17] |  |  |  | 8.37 |  | 
CNC(=O)c1ccccc1Nc1nc(Nc2ccc(N3CCC[C@H](C(N)=O)C3)cc2OC)ncc1Cl [Example 7-18] |  |  |  | 8.21 |  | 
CNC(=O)c1ccccc1Nc1nc(Nc2cc(N3CCC(N4CCN(C)CC4)CC3)ccc2OC)ncc1Cl [Example 7-19] | 6.48 |  | 7.89 |  |  | 
CNC(=O)c1ccccc1Nc1nc(Nc2cc(N3CCN(C)CC3)ccc2OC)ncc1Cl [Example 7-22] | 6.32 |  | 7.60 |  |  | 
CNC(=O)c1ccccc1Nc1nc(Nc2cc(N3CCC(NC)C3)ccc2OC)ncc1Cl (stereo not shown) [Example 7-23] | 6.60 |  | 8.85 |  |  | 
CNC(=O)c1ccccc1Nc1nc(Nc2cc(N3CCC(N4CCCCC4)CC3)ccc2OC)ncc1Cl [Example 7-24] | 7.05 |  | 8.29 |  |  | 
CNC(=O)c1ccccc1Nc1nc(Nc2ccc(N3CCC(N4CCCC4)CC3)cc2OC)ncc1Cl [Example 7-25] | 6.14 |  | 7.89 and 8.70 |  |  | 6.24
CNC(=O)c1ccccc1Nc1nc(Nc2ccc(N3CCNCC3)cc2OC)ncc1Cl [Example 7-26] | 6.82 |  | 8.39 |  |  | 
CCNC(=O)c1ccccc1Nc1nc(Nc2ccc(N3CCC(N4CCCCC4)CC3)cc2OC)ncc1Cl [Example 9-3] |  |  |  |  |  | 6.43
COc1cc(N2CCN(C)CC2)ccc1Nc1ncc(Cl)c(Nc2cccc3c2C(=O)N(C)C3)n1 [Example 12-2] | 7.30 |  | 8.80 |  |  | 
COc1cc(N2CCC(O)CC2)ccc1Nc1ncc(Cl)c(Nc2cccc3c2C(=O)N(C)C3)n1 [Example 12-3] | 6.60 |  | 8.64 |  |  | 
COc1cc(N2CCC(N3CCN(C)CC3)CC2)ccc1Nc1ncc(Cl)c(Nc2cccc3c2C(=O)N(C)C3)n1 [Example 12-4] | 6.85 |  | 8.96 |  |  | 
